Measurements: ChEMBL document CHEMBL4145497, “Discovery of 2-aminothiazolyl berberine derivatives as effectively antibacterial agents toward clinically drug-resistant Gram-negative Acinetobacter baumanii” (Eur J Med Chem, 2018)
≈ marks a conversion by molar mass, not a printed value.

Assays:
Type in all cases: functional
Candida albicans [1] = assay: Antifungal activity against Candida albicans ATCC 76615 by CLSI two fold serial dilution method
Pseudomonas aeruginosa [2] = assay: Antibacterial activity against Pseudomonas aeruginosa ATCC 27853 after 18 to 24 hrs by CLSI two fold serial dilution method
Candida parapsilosis = assay: Antifungal activity against Candida parapsilosis ATCC 22019 by CLSI two fold serial dilution method; details: Lodderomyces parapsilosis
Aspergillus flavus = assay: Antifungal activity against Aspergillus flavus ATCC 204304 by CLSI two fold serial dilution method
Escherichia coli [3] = assay: Antibacterial activity against Escherichia coli DH52 after 18 to 24 hrs by CLSI two fold serial dilution method
Aspergillus fumigatus = assay: Antifungal activity against drug-resistant Aspergillus fumigatus by CLSI two fold serial dilution method
Micrococcus luteus = assay: Antibacterial activity against Micrococcus luteus ATCC 4698 after 18 to 24 hrs by CLSI two fold serial dilution method
Candida albicans [4] = assay: Antifungal activity against drug-resistant Candida albicans by CLSI two fold serial dilution method
Cyberlindnera jadinii = assay: Antifungal activity against Candida utilis ATCC 9950 by CLSI two fold serial dilution method; details: Williopsis jadinii
Saccharomyces cerevisiae = assay: Antifungal activity against Saccharomyces cerevisiae ATCC 9763 by CLSI two fold serial dilution method
Escherichia coli [5] = assay: Antibacterial activity against drug-resistant Escherichia coli after 18 to 24 hrs by CLSI two fold serial dilution method
Pichia norvegensis = assay: Antifungal activity against Candida mycoderma ATCC 96918 by CLSI two fold serial dilution method
Acinetobacter baumannii = assay: Antibacterial activity against drug-resistant Acinetobacter baumannii after 18 to 24 hrs by CLSI two fold serial dilution method
Bacillus subtilis = assay: Antibacterial activity against Bacillus subtilis ATCC 21216 after 18 to 24 hrs by CLSI two fold serial dilution method
Staphylococcus aureus [6] = assay: Antibacterial activity against Staphylococcus aureus ATCC 25923 after 18 to 24 hrs by CLSI two fold serial dilution method
Klebsiella pneumoniae = assay: Antibacterial activity against drug-resistant Klebsiella pneumoniae after 18 to 24 hrs by CLSI two fold serial dilution method
Pseudomonas aeruginosa [7] = assay: Antibacterial activity against drug-resistant Pseudomonas aeruginosa after 18 to 24 hrs by CLSI two fold serial dilution method
Staphylococcus aureus [8] = assay: Antibacterial activity against methicillin-resistant Staphylococcus aureus N315 after 18 to 24 hrs by CLSI two fold serial dilution method
Candida tropicalis = assay: Antifungal activity against drug-resistant Candida tropicalis by CLSI two fold serial dilution method
Enterococcus faecalis = assay: Antibacterial activity against drug-resistant Enterococcus faecalis after 18 to 24 hrs by CLSI two fold serial dilution method

SMILES | MIC (Candida albicans [1]) [µM] | MIC (Pseudomonas aeruginosa [2]) [µM] | MIC (Candida parapsilosis) [µM] | MIC (Aspergillus flavus) [µM] | MIC (Escherichia coli [3]) [µM] | MIC (Aspergillus fumigatus) [µM] | MIC (Micrococcus luteus) [µM] | MIC (Candida albicans [4]) [µM] | MIC (Cyberlindnera jadinii) [µM] | MIC (Saccharomyces cerevisiae) [µM] | MIC (Escherichia coli [5]) [µM] | MIC (Pichia norvegensis) [µM] | MIC (Acinetobacter baumannii) [µM] | MIC (Bacillus subtilis) [µM] | MIC (Staphylococcus aureus [6]) [µM] | MIC (Klebsiella pneumoniae) [µM] | MIC (Pseudomonas aeruginosa [7]) [µM] | MIC (Staphylococcus aureus [8]) [µM] | MIC (Candida tropicalis) [µM] | MIC (Enterococcus faecalis) [µM]
C=CCOc1c(OC)cc(/C=N/NC(N)=S)c2c1CN1CCc3cc4c(cc3C1C2)OCO4 (stereo not drawn) | 140 (≈ 65.3 µg/mL) | 140 (≈ 65.3 µg/mL) | 30 (≈ 14 µg/mL) | 270 (≈ 126 µg/mL) | 140 (≈ 65.3 µg/mL) | 70 (≈ 32.7 µg/mL) | 270 (≈ 126 µg/mL) | 140 (≈ 65.3 µg/mL) | 270 (≈ 126 µg/mL) | 550 (≈ 257 µg/mL) | 140 (≈ 65.3 µg/mL) | 270 (≈ 126 µg/mL) | 70 (≈ 32.7 µg/mL) | 270 (≈ 126 µg/mL) | 70 (≈ 32.7 µg/mL) | 550 (≈ 257 µg/mL) | 140 (≈ 65.3 µg/mL) | 70 (≈ 32.7 µg/mL) | 70 (≈ 32.7 µg/mL) | 140 (≈ 65.3 µg/mL)
COc1cc(/C=N/NC(N)=S)c2c(c1OCc1ccc(Cl)cc1Cl)CN1CCc3cc4c(cc3C1C2)OCO4 (stereo not drawn) | 110 (≈ 64.4 µg/mL) | 220 (≈ 129 µg/mL) | 10 (≈ 5.86 µg/mL) | 440 (≈ 258 µg/mL) | 440 (≈ 258 µg/mL) | 110 (≈ 64.4 µg/mL) | 110 (≈ 64.4 µg/mL) | 110 (≈ 64.4 µg/mL) | 440 (≈ 258 µg/mL) | 880 (≈ 515 µg/mL) | 440 (≈ 258 µg/mL) | 220 (≈ 129 µg/mL) | 3 (≈ 1.76 µg/mL) | 220 (≈ 129 µg/mL) | 110 (≈ 64.4 µg/mL) | 220 (≈ 129 µg/mL) | 220 (≈ 129 µg/mL) | 110 (≈ 64.4 µg/mL) | 220 (≈ 129 µg/mL) | 440 (≈ 258 µg/mL)
C#CCOc1c(OC)cc(/C=N/Nc2nccs2)c2c1CN1CCc3cc4c(cc3C1C2)OCO4 (stereo not drawn) | 260 (≈ 127 µg/mL) | 130 (≈ 63.5 µg/mL) | 130 (≈ 63.5 µg/mL) | 1050 (≈ 513 µg/mL) | 130 (≈ 63.5 µg/mL) | – | 520 (≈ 254 µg/mL) | – | 260 (≈ 127 µg/mL) | 1050 (≈ 513 µg/mL) | – | 1050 (≈ 513 µg/mL) | – | 520 (≈ 254 µg/mL) | 130 (≈ 63.5 µg/mL) | – | – | – | – | –
CCCCOc1c(OC)cc(/C=N/NC(N)=S)c2c1CN1CCc3cc4c(cc3C1C2)OCO4 (stereo not drawn) | 130 (≈ 62.7 µg/mL) | 130 (≈ 62.7 µg/mL) | 130 (≈ 62.7 µg/mL) | 270 (≈ 130 µg/mL) | 270 (≈ 130 µg/mL) | 270 (≈ 130 µg/mL) | 270 (≈ 130 µg/mL) | 130 (≈ 62.7 µg/mL) | 130 (≈ 62.7 µg/mL) | 530 (≈ 256 µg/mL) | 270 (≈ 130 µg/mL) | 130 (≈ 62.7 µg/mL) | 70 (≈ 33.8 µg/mL) | 270 (≈ 130 µg/mL) | 130 (≈ 62.7 µg/mL) | 130 (≈ 62.7 µg/mL) | 270 (≈ 130 µg/mL) | 130 (≈ 62.7 µg/mL) | 270 (≈ 130 µg/mL) | 130 (≈ 62.7 µg/mL)
CCCCCCCCOc1c(OC)cc(/C=N/Nc2nccs2)c2c1CN1CCc3cc4c(cc3C1C2)OCO4 (stereo not drawn) | 230 (≈ 129 µg/mL) | 230 (≈ 129 µg/mL) | 230 (≈ 129 µg/mL) | 460 (≈ 259 µg/mL) | 450 (≈ 253 µg/mL) | – | 450 (≈ 253 µg/mL) | – | 460 (≈ 259 µg/mL) | 460 (≈ 259 µg/mL) | – | 460 (≈ 259 µg/mL) | – | 450 (≈ 253 µg/mL) | 230 (≈ 129 µg/mL) | – | – | – | – | –
COc1cc(/C=N/NC(N)=S)c2c(c1OCc1ccccc1Cl)CN1CCc3cc4c(cc3C1C2)OCO4 (stereo not drawn) | 230 (≈ 127 µg/mL) | 470 (≈ 259 µg/mL) | 230 (≈ 127 µg/mL) | 470 (≈ 259 µg/mL) | 230 (≈ 127 µg/mL) | 4 (≈ 2.2 µg/mL) | 230 (≈ 127 µg/mL) | 230 (≈ 127 µg/mL) | 230 (≈ 127 µg/mL) | 930 (≈ 512 µg/mL) | 230 (≈ 127 µg/mL) | 230 (≈ 127 µg/mL) | 4 (≈ 2.2 µg/mL) | 230 (≈ 127 µg/mL) | 120 (≈ 66.1 µg/mL) | 230 (≈ 127 µg/mL) | 470 (≈ 259 µg/mL) | 120 (≈ 66.1 µg/mL) | 470 (≈ 259 µg/mL) | 230 (≈ 127 µg/mL)
COc1cc(/C=N/NC(N)=S)c2c(c1OCc1ccc([N+](=O)[O-])cc1)CN1CCc3cc4c(cc3C1C2)OCO4 (stereo not drawn) | 230 (≈ 129 µg/mL) | 230 (≈ 129 µg/mL) | 110 (≈ 61.8 µg/mL) | 460 (≈ 258 µg/mL) | 110 (≈ 61.8 µg/mL) | 460 (≈ 258 µg/mL) | 110 (≈ 61.8 µg/mL) | 230 (≈ 129 µg/mL) | 460 (≈ 258 µg/mL) | 460 (≈ 258 µg/mL) | 110 (≈ 61.8 µg/mL) | 230 (≈ 129 µg/mL) | 460 (≈ 258 µg/mL) | 460 (≈ 258 µg/mL) | 230 (≈ 129 µg/mL) | 460 (≈ 258 µg/mL) | 230 (≈ 129 µg/mL) | 230 (≈ 129 µg/mL) | 460 (≈ 258 µg/mL) | 230 (≈ 129 µg/mL)
COc1cc(/C=N/NC(N)=S)c2c(c1OCCO)CN1CCc3cc4c(cc3C1C2)OCO4 (stereo not drawn) | 270 (≈ 127 µg/mL) | 140 (≈ 65.9 µg/mL) | 20 (≈ 9.41 µg/mL) | 270 (≈ 127 µg/mL) | 270 (≈ 127 µg/mL) | 270 (≈ 127 µg/mL) | 270 (≈ 127 µg/mL) | 270 (≈ 127 µg/mL) | 270 (≈ 127 µg/mL) | 540 (≈ 254 µg/mL) | 270 (≈ 127 µg/mL) | 140 (≈ 65.9 µg/mL) | 540 (≈ 254 µg/mL) | 270 (≈ 127 µg/mL) | 270 (≈ 127 µg/mL) | 270 (≈ 127 µg/mL) | 140 (≈ 65.9 µg/mL) | 270 (≈ 127 µg/mL) | 270 (≈ 127 µg/mL) | 30 (≈ 14.1 µg/mL)
CCOc1c(OC)cc(/C=N/NC(N)=S)c2c1CN1CCc3cc4c(cc3C1C2)OCO4 (stereo not drawn) | 140 (≈ 63.6 µg/mL) | 70 (≈ 31.8 µg/mL) | 70 (≈ 31.8 µg/mL) | 560 (≈ 255 µg/mL) | 280 (≈ 127 µg/mL) | 140 (≈ 63.6 µg/mL) | 140 (≈ 63.6 µg/mL) | 140 (≈ 63.6 µg/mL) | 280 (≈ 127 µg/mL) | 280 (≈ 127 µg/mL) | 280 (≈ 127 µg/mL) | 280 (≈ 127 µg/mL) | 140 (≈ 63.6 µg/mL) | 280 (≈ 127 µg/mL) | 70 (≈ 31.8 µg/mL) | 280 (≈ 127 µg/mL) | 70 (≈ 31.8 µg/mL) | 140 (≈ 63.6 µg/mL) | 280 (≈ 127 µg/mL) | 140 (≈ 63.6 µg/mL)
OC(Cn1cncn1)(Cn1cncn1)c1ccc(F)cc1F [FLUCONAZOLE] | 3 (≈ 0.919 µg/mL) | – | 7 (≈ 2.14 µg/mL) | 840 (≈ 257 µg/mL) | – | 840 (≈ 257 µg/mL) | – | 10 (≈ 3.06 µg/mL) | 30 (≈ 9.19 µg/mL) | 50 (≈ 15.3 µg/mL) | – | 10 (≈ 3.06 µg/mL) | – | – | – | – | – | – | 30 (≈ 9.19 µg/mL) | –
CCn1cc(C(=O)O)c(=O)c2cc(F)c(N3CCNCC3)cc21 [NORFLOXACIN] | – | 50 (≈ 16 µg/mL) | – | – | 50 (≈ 16 µg/mL) | – | 6 (≈ 1.92 µg/mL) | – | – | – | 1600 (≈ 511 µg/mL) | – | 800 (≈ 255 µg/mL) | 3 (≈ 0.958 µg/mL) | 2 (≈ 0.639 µg/mL) | 800 (≈ 255 µg/mL) | 1600 (≈ 511 µg/mL) | 30 (≈ 9.58 µg/mL) | – | 800 (≈ 255 µg/mL)
CCCCCCCCCCCCOc1c(OC)cc(/C=N/Nc2nccs2)c2c1CN1CCc3cc4c(cc3C1C2)OCO4 (stereo not drawn) | 410 (≈ 254 µg/mL) | 410 (≈ 254 µg/mL) | 30 (≈ 18.6 µg/mL) | 410 (≈ 254 µg/mL) | 210 (≈ 130 µg/mL) | – | 830 (≈ 514 µg/mL) | – | 410 (≈ 254 µg/mL) | 830 (≈ 514 µg/mL) | – | 50 (≈ 30.9 µg/mL) | – | 30 (≈ 18.6 µg/mL) | 210 (≈ 130 µg/mL) | – | – | – | – | –
